Reference: patent publication US8653257B2, “Dibenzothiazepine derivatives and uses thereof—424” (Astrazeneca AB, priority 2008, dated 2014)

How the values were obtained:
dopamine D2s receptor = dopamine D2s receptor (Homo sapiens (Human), UniProt P14416); assay: D2 antagonist GTPγS functional assay; type: biochemical; conditions: antagonist mode
Description: In vitro experimental assays can generally be carried out as described herein. Briefly, CHO-K1 cells stably transfected with the dopamine D2s receptor can be used in the experiments and maintained in Ham's F12 culture medium supplemented with 2 mM L-glutamine, 10% FBS, and 500 μg/ml Hygromycin.
GTPgS assay can be performed substantially as described by Lazareno, Methods in Molecular Biology, 1999, 106, 231-245. Antagonist activity of compounds can be determined by the ability of test compounds to block dopamine-stimulated [^35S]-GTPγS binding to cell membranes from D2s stably-transfected CHO cells.

[1] = tested on: D-Amphetamine-induced Hyperlocomotor Activity; assay: D-Amphetamine-induced hyperlocomotor activity (LMA) in habituated rat model; type: in vivo, male Long Evans rats; conditions: 30 mg/kg and 60 mg/kg (sc)
Description: Studies in vivo can be used to determine the antipsychotic effect and are generally carried out as follows. Briefly, D-Amphetamine-induced Hyperlocomotor Activity (LMA) in a Habituated Rat Model can be assessed in male Long Evans rats using a paradigm that includes a habituation phase followed by administration of 1 mg/kg D-amphetamine. Animals can be allowed to acclimatize to the testing room for 1 hour before being weighed and placed into activity chambers. Thirty minutes after LMA measurement is begun, animals can be briefly removed, dosed via the sub-cutaneous route (s.c.) with vehicle or test drug at different doses and returned to the chambers. After a further 30 minutes, animals can again be removed and dosed with vehicle or D-amphetamine at 1 mg/kg (s.c.). After returning the animals to the activity chambers, LMA can be assessed for a further 60 minutes. Haloperidol (0.1 mg/kg dissolved in H2O) can be administered 15 minutes prior to D-amphetamine via the s.c. route. Statistical analysis can be made of total distance traveled after D-amphetamine administration using ANOVA and Tukey's post hoc analysis where appropriate. All values can be expressed as Mean and SD.

[2] = tested on: Conditioned Avoidance Responding; assay: Conditioned avoidance responding (CAR) assay; type: in vivo, Male Long-Evans rats; conditions: 30 mg/kg and 60 mg/kg (sc), rat
Description: Male Long-Evans rats can be trained to traverse to the opposite side of a standard shuttle cage following presentation of an auditory and visual stimulus to avoid delivery of electric shock to the floor of the cage. Daily sessions can consist of up to 80 trials. If a shock is delivered, animals have the opportunity to escape the shock by traversing to the opposite side of the cage. Drug can be administered (via s.c. or p.o. route) 60 minutes prior to testing and the percentage of trials in which shock is avoided and escaped can be recorded.

H1 receptor = H1 receptor (Homo sapiens (Human), UniProt P35367); assay: H1 receptor binding; design: species or system Hu; conditions: one average result
Sequence of H1 receptor (P35367 whole entry): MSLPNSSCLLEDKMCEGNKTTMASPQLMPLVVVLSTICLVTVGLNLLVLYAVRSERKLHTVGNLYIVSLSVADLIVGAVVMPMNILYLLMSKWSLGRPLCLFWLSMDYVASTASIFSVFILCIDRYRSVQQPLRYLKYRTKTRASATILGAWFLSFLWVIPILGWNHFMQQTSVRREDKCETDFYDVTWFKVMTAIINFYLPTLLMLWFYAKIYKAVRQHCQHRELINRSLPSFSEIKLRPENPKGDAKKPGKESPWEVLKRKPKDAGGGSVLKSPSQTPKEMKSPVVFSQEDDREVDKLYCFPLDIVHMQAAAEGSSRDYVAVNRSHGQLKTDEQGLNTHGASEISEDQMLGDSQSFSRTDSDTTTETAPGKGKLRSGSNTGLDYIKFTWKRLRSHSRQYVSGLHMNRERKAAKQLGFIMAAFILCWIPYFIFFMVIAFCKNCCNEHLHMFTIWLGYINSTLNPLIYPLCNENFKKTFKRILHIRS
Source text: The H1 receptor binding method can be carried out in accordance with De Backer et al., Biochem. Biophys. Res. Commun., 1993, 197(3), 1601.

Sequence of dopamine D2s receptor (P14416 other isoform, or with tags, fused parts or gaps): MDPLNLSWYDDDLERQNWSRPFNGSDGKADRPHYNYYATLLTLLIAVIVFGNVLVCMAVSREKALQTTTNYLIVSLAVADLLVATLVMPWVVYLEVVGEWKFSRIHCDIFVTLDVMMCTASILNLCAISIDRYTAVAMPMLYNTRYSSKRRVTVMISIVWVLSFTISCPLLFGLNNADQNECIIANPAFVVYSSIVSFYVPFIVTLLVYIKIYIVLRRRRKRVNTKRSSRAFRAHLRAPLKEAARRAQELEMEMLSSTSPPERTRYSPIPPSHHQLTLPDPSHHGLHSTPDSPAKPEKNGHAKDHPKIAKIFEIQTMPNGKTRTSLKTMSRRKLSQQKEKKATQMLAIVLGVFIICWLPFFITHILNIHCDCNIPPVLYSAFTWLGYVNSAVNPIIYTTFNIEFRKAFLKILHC

For `CN1CCN(C2=Nc3ccccc3Sc3ccc(Cl)cc32)CC1` [2-Chloro-11-(4-methyl-piperazin-1-yl)-dibenzo[b,f][1,4]thiazepine], the “D2 Ant GTPγS Top Effect” value (dopamine D2s receptor) was 100.
`Clc1ccc2c(c1)C(N1CCNCC1)=Nc1ccccc1S2` [2-Chloro-11-piperazin-1-yl-dibenzo[b,f][1,4]thiazepine] was tested, and the “D2 Ant GTPγS Top Effect” value (dopamine D2s receptor) was 100.
`CN1CCN(C2=Nc3ccccc3Sc3ccc(F)cc32)CC1` [2-Fluoro-11-(4-methyl-piperazin-1-yl)-dibenzo[b,f][1,4]thiazepine] was tested, and the “D2 Ant GTPγS Top Effect” value (dopamine D2s receptor) was 100.
`c1ccc2c(c1)N=C(N1CCNCC1)c1ccccc1S2` [11-Piperazin-1-yl-dibenzo[b,f][1,4]thiazepine] was tested, and the “D2 Ant GTPγS Top Effect” value (dopamine D2s receptor) was 89.
With `Fc1ccc2c(c1)C(N1CCNCC1)=Nc1ccccc1S2` [Example 1, 2-fluoro-11-(piperazin-1-yl)dibenzo[b,f][1,4]thiazepine] the “activity in D-amphetamine-induced hyperlocomotor activity” value [1] was “showed activity”, the “activity in conditioned avoidance responding” value [2] was “showed activity” and the “D2 Ant GTPγS Top Effect” value (dopamine D2s receptor) was 97. The Ki (H1 receptor) was roughly 7.1 nM.
